TGI and GI50 data for 15 molecules are collected here from PubChem BioAssay (NCI).

Each structure is given as a SMILES string.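 Five compound concentrations were applied to cells in 96-well plates for 48 hours; endpoints were derived by simple linear interpolation of the resulting dose-response curve. GI50 = concentration required for 50% inhibition of growth. TGI is the concentration that stops growth completely.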 A value given as a limit tells only on which side of the number the result lay.

Among the test systems are DU-145 prostate; HCT-15 colon; HS 578T breast; HT29 colon; MALME-3M melanoma; MCF7 breast; NCI-H522 lung; RPMI-8226 leukemia; T-47D breast; MOLT-4 leukemia.
Assay in all cases: DTP human tumour cell line panel, 48 h

Take `CC1OC(OC2C[C@](O)(C(=O)CBr)Cc3c(O)c4c(c(O)c32)C(=O)c2ccccc2C4=O)C(F)C(O)C1O` (stereo partly specified): the TGI in the assay with DU-145 prostate is 63.2 µM; with HCT-15 colon, 21.6 µM; in the assay on HS 578T breast, above 73.4 µM; with HT29 colon, above 56.1 µM; in the assay on MALME-3M melanoma, 16.5 µM; in the assay on MCF7 breast it was above 100 µM. Moreover, the figures for the total growth inhibition concentration (TGI) in the assay with NCI-H522 lung, with RPMI-8226 leukemia and in the assay with T-47D breast were 23.5 µM, 17.7 µM and above 82 µM, respectively.
As to `CCOC(=O)/C=C/c1c[nH]c(=O)[nH]c1=O`, the TGI with HCT-15 colon is above 75 µM; in the assay with HT29 colon it was above 75 µM; in the assay on MALME-3M melanoma, above 75 µM; with MCF7 breast, above 75 µM; in the assay with MOLT-4 leukemia, above 48.7 µM; in the assay with NCI-H522 lung it was above 75 µM. This molecule also gave a TGI with RPMI-8226 leukemia above 57 µM.
Consider `CCCCCCCCCC[N+](C)(C)C`, for which the GI50 was 1.94 µM in the assay with DU-145 prostate; 2.49 µM in the assay on HCT-15 colon; 2.22 µM with HS 578T breast; 0.505 µM in the assay on HT29 colon; 2.25 µM in the assay with MALME-3M melanoma; 2.45 µM in the assay with MCF7 breast. The GI50 with MOLT-4 leukemia was 1.59 µM; in the assay with NCI-H522 lung, 1.7 µM; in the assay on RPMI-8226 leukemia, 0.604 µM; in the assay on T-47D breast it was 1.91 µM. The TGI came to 4.88 µM with DU-145 prostate; 17.1 µM in the assay on HCT-15 colon; 6.38 µM with HS 578T breast; 2.17 µM with HT29 colon; 8.96 µM in the assay on MALME-3M melanoma; 12.7 µM with MCF7 breast. Besides, the TGI with MOLT-4 leukemia is 3.43 µM; in the assay with NCI-H522 lung, 5.11 µM; in the assay on RPMI-8226 leukemia, 2.9 µM; in the assay on T-47D breast, 8.33 µM.
Take `CCCCCCC(=O)c1ccc2ccccc2c1O`: the TGI in the assay on DU-145 prostate is 92.6 µM; in the assay with HCT-15 colon it was above 100 µM; with HS 578T breast it was above 100 µM; in the assay with HT29 colon, above 100 µM; in the assay with MCF7 breast, above 100 µM; in the assay on MOLT-4 leukemia it was above 100 µM. The TGI in the assay on RPMI-8226 leukemia and in the assay with T-47D breast was above 100 µM throughout.
As for `N[C@@H](Cc1ccc2oc3cc(=O)c4ccccc4c-3nc2c1)C(=O)O`, the TGI was 34.7 µM in the assay on DU-145 prostate; above 100 µM in the assay with HCT-15 colon; above 100 µM in the assay with HS 578T breast; 96.8 µM in the assay on HT29 colon; 11.2 µM in the assay on MALME-3M melanoma; 6.79 µM with MCF7 breast. The TGI with MOLT-4 leukemia, with NCI-H522 lung, in the assay with RPMI-8226 leukemia and in the assay on T-47D breast was above 100 µM each time.
For the molecule `CSS(C)(=O)=O`, the TGI is 45.9 µM in the assay on DU-145 prostate; 58.8 µM in the assay on HCT-15 colon; above 100 µM with HS 578T breast; above 100 µM with HT29 colon; 48.4 µM in the assay with MALME-3M melanoma; above 100 µM with MCF7 breast. For the same molecule, the TGI worked out at 10.1 µM with MOLT-4 leukemia, 37.1 µM in the assay on NCI-H522 lung, 5.36 µM in the assay on RPMI-8226 leukemia and 57.2 µM in the assay on T-47D breast.
Turning to `COc1ccc2c(c1)C=C(C(C)(C)C)NS2(=O)=O`, the TGI in the assay on HCT-15 colon, with HT29 colon, with MALME-3M melanoma, in the assay on MOLT-4 leukemia and in the assay with NCI-H522 lung was above 100 µM in each case.
For `CC(c1ccccc1)C(O)S(=O)(=O)O` (stereo unspecified), the TGI in the assay on HCT-15 colon, in the assay with HT29 colon, in the assay with MALME-3M melanoma, in the assay with MOLT-4 leukemia, in the assay with NCI-H522 lung and in the assay on RPMI-8226 leukemia was above 100 µM throughout.
On to `C=CCOC1OC(CS(=O)(=O)O)C(OC(C)=O)C(OC(C)=O)C1OC(C)=O` (stereo unspecified), for which the TGI with DU-145 prostate, in the assay with HCT-15 colon, in the assay on HS 578T breast, with HT29 colon, in the assay with MALME-3M melanoma and with MCF7 breast was above 100 µM each time. Moreover, the TGI in the assay on MOLT-4 leukemia, in the assay on RPMI-8226 leukemia and with T-47D breast was above 100 µM in each case.
Consider `COc1cc2c3cc1Oc1c(OC)c(OC)cc4c1C(Cc1ccc(O)c(c1)-c1cc(ccc1OC)CC3N(C)CC2)N(C)CC4` (stereo unspecified), for which the TGI was above 100 µM in the assay on DU-145 prostate; 25.4 µM in the assay with HCT-15 colon; 59.1 µM with HS 578T breast; 50.4 µM with HT29 colon; 41.4 µM with MALME-3M melanoma; 49 µM with MCF7 breast. In addition, the concentration for total growth inhibition (TGI) was found to be 74.2 µM in the assay with MOLT-4 leukemia, 31.1 µM in the assay on NCI-H522 lung and 68.9 µM in the assay on T-47D breast.
As for `COc1ccc(-c2c3c(nc4[nH]c(=S)[nH]c(=S)c24)CCCC3)cc1OC`, the total growth inhibition concentration (TGI) was above 100 µM with DU-145 prostate; above 100 µM with HCT-15 colon; 54.4 µM in the assay with HS 578T breast; above 100 µM with HT29 colon; above 100 µM in the assay with MALME-3M melanoma; above 100 µM with MCF7 breast. The total growth inhibition concentration (TGI) in the assay with MOLT-4 leukemia is 61.2 µM; in the assay on RPMI-8226 leukemia it was above 100 µM; in the assay with T-47D breast, above 100 µM.
With `c1ccc(N2N=C3N(c4ccccc4)C2N3c2ccccc2)cc1`, the concentration for total growth inhibition (TGI) with DU-145 prostate was above 100 µM; with HCT-15 colon it was above 100 µM; with HS 578T breast, above 100 µM; in the assay with HT29 colon it was above 100 µM; with MALME-3M melanoma, 38.2 µM; in the assay on MCF7 breast it was above 100 µM. The TGI was 62.5 µM in the assay with MOLT-4 leukemia, 56.1 µM in the assay with NCI-H522 lung, 48.7 µM in the assay with RPMI-8226 leukemia and above 100 µM in the assay on T-47D breast.
Regarding `COc1ccc(OCC(C)(C)O)cc1`, the total growth inhibition concentration (TGI) in the assay with HCT-15 colon was above 100 µM; with HT29 colon, above 100 µM; in the assay with MALME-3M melanoma it was above 100 µM; in the assay with MCF7 breast, above 84.1 µM; in the assay with MOLT-4 leukemia, above 100 µM; with RPMI-8226 leukemia, above 100 µM.
For `CC(C)(C)C(=O)CC(=O)C(F)(F)C(F)(F)C(F)(F)F.[Ag]`, the TGI in the assay on DU-145 prostate was above 100 µM; in the assay with HCT-15 colon it was 31.3 µM; with HS 578T breast it was 63.8 µM; in the assay on HT29 colon it was 36 µM; in the assay on MALME-3M melanoma, 45.4 µM; in the assay with MOLT-4 leukemia it was 44.8 µM. The TGI was found to be 44.5 µM in the assay on RPMI-8226 leukemia and 55.2 µM in the assay on T-47D breast.
Regarding `COc1ccc2c(c1)c(=O)c1c(NCCCN(C)C)ccc3ncn2c31`, the concentration for total growth inhibition (TGI) is 18.7 µM in the assay with DU-145 prostate; 14.7 µM with HCT-15 colon; 29.3 µM with HS 578T breast; 8.21 µM with HT29 colon; 26 µM in the assay on MALME-3M melanoma; 8.4 µM in the assay with MCF7 breast. For the same molecule, the TGI with MOLT-4 leukemia is 13.9 µM; in the assay with NCI-H522 lung, 21.4 µM; in the assay on RPMI-8226 leukemia it was above 27.7 µM; with T-47D breast, 32.8 µM.

The term TGI denotes the concentration at which net growth stops. What is called GI50 is the concentration that inhibits growth by half.
